# In US20240083903A1, “ARYL ETHER COMPOUNDS AS TEAD MODULATORS” (Merck Sharp& Dohme LLC, priority 2021, published 2024):
# System: TEAD Reporter-MCF7 cell line
# Test: YAP/TEAD cellular activity assay: inhibition of TEAD-Luc activity in TEAD Reporter-MCF7 cell line
# Type: cell-based, human
# Settings: Homo sapiens, MCF7, 24 h, TEAD Reporter-MCF7 cells, 24 hours incubation with compound, luciferase readout
# Method: YAP/TEAD Cellular Activity Assay
# Quantitation of Compound Potency on the Inhibition of TEAD-Luc Activity in TEAD Reporter-MCF7 Cell Line.
# The TEAD Reporter-MCF7 cell line containing the firefly luciferase gene under the control of TEAD responsive elements stably integrated into the human breast cancer cell line was purchased from BPS Bioscience (Cat #60618). The cells were cultured with complete culture medium ([…], 1 mM sodium pyruvate, 10% fetal bovine serum, 10 ng/mL insulin and 400 ug/mL G418 sulfate) prior to the assay. For the assay, the cells were harvested, resuspended in the complete culture medium without G418, and seeded into white solid bottom 384-well cell culture microplates in 25 uL with 10,000 cells per well. The plates were incubated at 37° C. in a CO2 incubator for 20-24 hours and the compounds were then transferred from Echo LDV plates directly into the 384-well white tissue culture plates with an Echo. The plates were incubated at 37° C. in a CO2 incubator for 24 hours and equal volume of ONE-Glo™ EX Luciferase reagent (Promega, Cat #E8150) was added. After mixing on a shaker at room temperature for 10 minutes, the luciferase activity was measured with an Envision. The percentage inhibition and EC50 values of compounds were calculated with Spotfire.
# Required Materials • 1. TEAD reporter-MCF-7 Cells (BPS Bioscience, #60618) • 2. Complete Cell Culture Medium (without selection antibiotics) • EMEM 89% (ATCC, #30-2003) • FBS 10% (Hyclone, #SH30088.03) • 1% Non essential amino acids (Gibco, • 1 mM sodium pyruvate (Gibco, • Pen/Strep, 1% (Gibco, #15140-122) • 10 ng/mL insulin (Sigma, #10516) • 3. Complete Cell Culture Medium (with selection antibiotics) • EMEM 89% (ATCC, #30-2003) • F1% Non essential amino acids (Gibco, • 1 mM sodium pyruvate (Gibco, • BS 10% (Hyclone, #SH30088.03) • 10 ng/mL insulin (Sigma, #10516) • 400 ug/mL G418 sulfate (Agilent, #200049-21) • 4. Miscellaneous tissue culture equipment and reagents. • 5. White solid 384-well tissue culture plate (Greiner, Cat #781080) • 6. One Glo EX luciferase assay system (Promega, #E8150)
# The following table tabulates the biological data disclosed for the current invention. The biological data was collected using the methodology described above. For each compound, TEAD-Luc EC50 values are listed in nanomolar (nM) concentration units.
row,SMILES,EC50 [nM]
1,"CNS(=O)(=O)c1ccc(Oc2ccc(C(F)(F)F)cc2)c(-c2cccc3nc(N)[nH]c23)c1 [2-13, 3-(2-amino-1H-benzimidazol-7-yl)-N-methyl-4-[4-(trifluoromethyl)phenoxy]benzene-1-sulfonamide]",3650
2,"CNS(=O)(=O)c1ccc(Oc2ccc(C(F)(F)F)cc2)c(-c2cn3ccc(F)cc3n2)c1 [1-32, 3-(7-fluoroimidazo[1,2-a]pyridin-2-yl)-N-methyl-4-[4-(trifluoromethyl)phenoxy]benzene-1-sulfonamide]",62.4
3,"CNS(=O)(=O)c1ccc(Oc2ccc(C(F)(F)F)cc2)c(-c2cc3c(cc2F)N(C)C(=O)CC3)c1 [2-23, 3-(7-fluoro-1-methyl-2-oxo-1,2,3,4-tetrahydroquinolin-6-yl)-N-methyl-4-[4-(trifluoromethyl)phenoxy]benzene-1-sulfonamide]",3640
4,"CNS(=O)(=O)c1ccc(Oc2ccc(C(F)(F)F)cc2)c(-c2nsc3ccccc23)c1 [1-13, 3-(1,2-benzothiazol-3-yl)-N-methyl-4-[4-(trifluoromethyl)phenoxy]benzene-1-sulfonamide]",414
5,"CNS(=O)(=O)c1ccc(Oc2ccc(C(F)(F)F)cc2)c(-c2nc3ccccc3o2)c1 [1-29, 3-(1,3-benzoxazol-2-yl)-N-methyl-4-[4-(trifluoromethyl)phenoxy]benzene-1-sulfonamide]",861
6,"CNS(=O)(=O)c1ccc(Oc2ccc(C(F)(F)F)cc2)c(-c2nc3cnccn3n2)c1 [1-15, N-methyl-3-([1,2,4]triazolo[1,5-a]pyrazin-2-yl)-4-[4-(trifluoromethyl)phenoxy]benzene-1-sulfonamide]",540
7,"CNS(=O)(=O)c1ccc(Oc2ccc(C(C)(C)C)cc2)c(-c2cn3c(n2)CCC3)c1 [4-3, 4-(4-tert-butylphenoxy)-3-(6,7-dihydro-5H-pyrrolo[1,2-a]imidazol-2-yl)-N-methylbenzene-1-sulfonamide]",5.7
8,"CNS(=O)(=O)c1cnc(Oc2ccc(C(F)(F)F)cc2)c(-c2cn3c(n2)CCC3)c1 [11-1, 5-(6,7-dihydro-5H-pyrrolo[1,2-a]imidazol-2-yl)-N-methyl-6-[4-(trifluoromethyl)phenoxy]pyridine-3-sulfonamide]",8.7
9,"CNS(=O)(=O)c1ccc(Oc2ccc(C(F)(F)F)cc2)c(-c2ccc3c(cnn3C)c2)c1 [2-15, N-methyl-3-(1-methyl-1H-indazol-5-yl)-4-[4-(trifluoromethyl)phenoxy]benzene-1-sulfonamide]",336
10,"CNS(=O)(=O)c1ccc(Oc2ccc(C(F)(F)F)cc2)c(-c2cnc3n2CCC3)c1 [1-6, 3-(6,7-dihydro-5H-pyrrolo[1,2-a]imidazol-3-yl)-N-methyl-4-[4-(trifluoromethyl)phenoxy]benzene-1-sulfonamide]",3490
11,"CNS(=O)(=O)c1ccc(Oc2ccc(C(F)(F)F)cc2)c(-c2ccc3c(=O)nc[nH]c3c2)c1 [2-32, N-methyl-3-(4-oxo-1,4-dihydroquinazolin-7-yl)-4-[4-(trifluoromethyl)phenoxy]benzene-1-sulfonamide]",7570
12,"CNc1ncc2cc(-c3cc(S(=O)(=O)NC)ccc3Oc3ccc(C(F)(F)F)cc3)ccc2n1 [2-25, N-methyl-3-[2-(methylamino)quinazolin-6-yl]-4-[4-(trifluoromethyl)phenoxy]benzene-1-sulfonamide]",232

# The next lines start with the values.
row,EC50 [nM],SMILES
1,5.1,"CNS(=O)(=O)c1ccc(Oc2ccc(C(F)(F)F)cc2)c(-c2cc3n(n2)CCC3)c1 [1-2, 3-(5,6-Dihydro-4H-pyrrolo[1,2-b]pyrazol-2-yl)-N-methyl-4-(4-(trifluoromethyl)phenoxy)benzenesulfonamide]"
2,50.5,"CNS(=O)(=O)c1ccc(Oc2ccc(C(F)(F)F)cc2)c(-c2ccc3cc(OC)nnc3c2)c1 [2-2, 3-(3-Methoxycinnolin-7-yl)-N-methyl-4-[4-(trifluoromethyl)phenoxy]benzene-1-sulfonamide]"
3,206,"CNS(=O)(=O)c1ccc(Oc2ccc(F)c(F)c2)c(-c2cn3c(n2)CCC3)c1 [4-11, 4-(3,4-difluorophenoxy)-3-(6,7-dihydro-5H-pyrrolo[1,2-a]imidazol-2-yl)-N-methylbenzene-1-sulfonamide]"
4,247,"CNS(=O)(=O)c1ccc(Oc2ccc(C(F)(F)F)cc2)c(-c2ccc3c(c2)OCO3)c1 [2-14, 3-(2H-1,3-benzodioxol-5-yl)-N-methyl-4-[4-(trifluoromethyl)phenoxy]benzene-1-sulfonamide]"
5,1070,"CNS(=O)(=O)c1ccc(Oc2ccc(C(F)(F)F)cc2)c(-c2nc3n(c2C#N)CCNC3)c1 [1-17, 3-(3-cyano-5,6,7,8-tetrahydroimidazo[1,2-a]pyrazin-2-yl)-N-methyl-4-[4-(trifluoromethyl)phenoxy]benzene-1-sulfonamide]"
6,15,"CNS(=O)(=O)c1ccc(Oc2ccc(Cl)cc2F)c(-c2cn3c(n2)CCC3)c1 [4-20, 4-(4-chloro-2-fluorophenoxy)-3-(6,7-dihydro-5H-pyrrolo[1,2-a]imidazol-2-yl)-N-methylbenzene-1-sulfonamide]"
7,675,"CNS(=O)(=O)c1ccc(Oc2ccc(C(F)(F)F)cc2)c(-c2cnc3cccnc3c2)c1 [2-30, N-methyl-3-(1,5-naphthyridin-3-yl)-4-[4-(trifluoromethyl)phenoxy]benzene-1-sulfonamide]"
8,14,"CNS(=O)(=O)c1ccc(Oc2ccc(SC(F)(F)F)cc2)c(-c2cn3c(n2)CCC3)c1 [4-17, 3-(6,7-dihydro-5H-pyrrolo[1,2-a]imidazol-2-yl)-N-methyl-4-{4-[(trifluoromethyl)sulfanyl]phenoxy}benzene-1-sulfonamide]"
9,4020,"CNS(=O)(=O)c1ccc(Oc2ccc(C(F)(F)F)cc2)c(-c2cc3c(s2)CCNC3)c1 [1-16, N-methyl-3-(4,5,6,7-tetrahydrothieno[3,2-c]pyridin-2-yl)-4-[4-(trifluoromethyl)phenoxy]benzene-1-sulfonamide]"
10,6690,"CNS(=O)(=O)c1ccc(Oc2ccc(C(F)(F)F)cc2)c(-n2cc3c(n2)CN(C)C3)c1 [6-1, N-Methyl-3-(5-methyl-5,6-dihydropyrrolo [3,4-c]pyrazol-2(4H)-yl)-4-(4-(trifluoromethyl)phenoxy)benzenesulfonamide]"
11,198,"CNS(=O)(=O)c1ccc(Oc2ccc(C(F)(F)F)cc2)c(-c2ccc3c(c2)n(C)c(=O)n3C)c1 [2-8, 3-(1,3-dimethyl-2-oxo-2,3-dihydro-1H-benzimidazol-5-yl)-N-methyl-4-[4-(trifluoromethyl)phenoxy]benzene-1-sulfonamide]"
12,5620,"CNS(=O)(=O)c1ccc(Oc2ccc(C(F)(F)F)cc2)c(-c2cccc3cc[nH]c23)c1 [2-7, 3-(1H-indol-7-yl)-N-methyl-4-[4-(trifluoromethyl)phenoxy]benzene-1-sulfonamide]"
13,5230,"CNS(=O)(=O)c1ccc(Oc2ccc(C(F)(F)F)cc2)c(-c2ccc3c(c2)OCC(=O)N3)c1 [2-28, N-methyl-3-(3-oxo-3,4-dihydro-2H-1,4-benzoxazin-7-yl)-4-[4-(trifluoromethyl)phenoxy]benzene-1-sulfonamide]"
14,21.6,"CCc1cccc(Oc2ccc(S(=O)(=O)NC)cc2-c2cn3c(n2)CCC3)c1 [4-10, 3-(6,7-dihydro-5H-pyrrolo [1,2-a]imidazol-2-yl)-4-(3-ethylphenoxy)-N-methylbenzene-1-sulfonamide]"
15,2180,"CNS(=O)(=O)c1ccc(Oc2ccc(C(F)(F)F)cc2)c(-c2ccnc3[nH]ccc23)c1 [2-9, N-methyl-3-(1H-pyrrolo[2,3-b]pyridin-4-yl)-4-[4-(trifluoromethyl)phenoxy]benzene-1-sulfonamide]"
16,9780,"CNS(=O)(=O)c1ccc(Oc2ccc(C(F)(F)F)cc2)c(-c2cc3ccc(C)nc3cc2OC)c1 [2-21, 3-(7-methoxy-2-methylquinolin-6-yl)-N-methyl-4-[4-(trifluoromethyl)phenoxy]benzene-1-sulfonamide]"

# Same assay, conditions: TEAD Reporter-MCF7 cells, 24 hours incubation with compound, luciferase readout
row,EC50 [nM],SMILES
1,6.4,"CNS(=O)(=O)c1ccc(Oc2ccc(C(F)(F)F)cc2)c(-c2cn3c(n2)CC(C)C3)c1 (single isomer, unassigned) [1-42, (S)- or (R)-N-methyl-3-(6-methyl-6,7-dihydro-5H-pyrrolo[1,2-a]imidazol-2-yl)-4-[4-(trifluoromethyl)phenoxy]benzene-1-sulfonamide]"
2,25.3,"CNS(=O)(=O)c1ccc(Oc2ccc(F)cc2F)c(-c2cn3c(n2)CCC3)c1 [4-22, 4-(2,4-difluorophenoxy)-3-(6,7-dihydro-5H-pyrrolo[1,2-a]imidazol-2-yl)-N-methylbenzene-1-sulfonamide]"
